According to patent US9717737B2, “Vacuolin-1 as an inhibitor of autophagy and endosomal trafficking and the use thereof for inhibiting tumor progression” (The University of Hong Kong, priority 2014, dated 2017):

System: RFP-GFP-LC3 expressing HeLa cells
Test: RFP-GFP-LC3 (tfLC3) fluorescence image-based autophagy assay
Assay type: cell-based
Text: Prompted by the fact that many available autophagy chemical modulators lack either potency or specificity (Kimura et al., 2013), a fluorescence image-based assay was set up to screen small molecules affecting autophagy. HeLa cells, an autophagy competent cell line, were infected with lentiviruses carrying expression cassettes that encode RFP-GFP-LC3 (tfLC3) (Kimura et al., 2007). Thus, the LC3-II positive autophagosomes are labeled with both GFP and RFP signals shown as yellow puncta, and after fusion with lysosomes, autolysosomes are shown as red only puncta because GFP loses its fluorescence in acidic pH.
Next, a panel of small chemicals that are commercially available and have been previously shown to affect vesicle trafficking or organelle morphology were selected and screened for their effects on autophagy regulation in tfLC3 expressing HeLa cells (data not shown).

| Structure (SMILES) | LC3 puncta (yellow = autophagosomes, red only = autolysosomes) |
| --- | --- |
| CCN(CC)CCCC(C)Nc1ccnc2cc(Cl)ccc12 (centres unmarked) [CQ, Chloroquine] | markedly induced the accumulation of yellow puncta only |
| CO/C1=C\C(C)=C\[C@@H](C)[C@@H](O)[C@@H](C)C/C(C)=C/C=C/[C@H](OC)[C@@H]([C@@H](C)[C@@H](O)[C@H](C)[C@@]2(O)C[C@@H](O)[C@H](C)[C@@H](C(C)C)O2)OC1=O [bafilomycin, Bafilomycin A1] | markedly induced the accumulation of yellow puncta only |
